Reference: patent US7550485B2, “Substituted N-heterocycle derivatives and methods of their use” (Wyeth, priority 2003, dated 2009)
Counter-ions that a name gives are not always drawn.

Target: T1, hNET (Homo sapiens, UniProt P23975)
T1 construct: expressed in transfected cells
Experiment: Norepinephrine (NE) uptake assay in MDCK-Net6 cells stably transfected with human hNET
Format: cell-based
Details: MDCK-Net6, 1 μM test compound, [3H]NE uptake
In short: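 MDCK-Net6 cells preincubated 20 min at 37 °C with compound (1 to 10,000 nM) in HEPES buffer pH 7.4 with pargyline and ascorbate, then 5 min [3H]NE uptake (120 nM final). Lysed cells counted by scintillation; 1 μM desipramine defined minimum uptake; EC50 from logistic fit of pooled data.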

T1 sequence (P23975 whole entry): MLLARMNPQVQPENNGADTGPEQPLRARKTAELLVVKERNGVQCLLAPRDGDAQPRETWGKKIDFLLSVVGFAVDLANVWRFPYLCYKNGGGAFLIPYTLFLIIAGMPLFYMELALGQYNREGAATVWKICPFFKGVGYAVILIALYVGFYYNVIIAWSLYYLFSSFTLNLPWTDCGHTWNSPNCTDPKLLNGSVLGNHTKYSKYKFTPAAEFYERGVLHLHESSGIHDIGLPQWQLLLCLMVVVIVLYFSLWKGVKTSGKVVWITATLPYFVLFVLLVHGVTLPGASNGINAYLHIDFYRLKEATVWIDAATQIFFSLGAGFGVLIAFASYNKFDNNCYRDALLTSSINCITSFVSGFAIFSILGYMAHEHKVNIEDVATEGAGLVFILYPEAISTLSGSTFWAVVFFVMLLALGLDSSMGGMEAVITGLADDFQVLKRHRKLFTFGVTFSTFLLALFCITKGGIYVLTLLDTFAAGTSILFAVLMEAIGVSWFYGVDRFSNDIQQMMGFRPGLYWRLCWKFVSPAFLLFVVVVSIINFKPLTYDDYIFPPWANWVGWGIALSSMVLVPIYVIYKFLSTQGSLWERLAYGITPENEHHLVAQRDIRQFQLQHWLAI

`COc1cc(C(CN2CCC(N)CC2)C2(O)CCCCC2)ccc1OCc1ccccc1` (stereo not shown) [Example 450, 1-{2-(4-aminopiperidin-1-yl)-1-[4-(benzyloxy)-3-methoxyphenyl]ethyl}cyclohexanol dihydrochloride] was tested, and the inhibition at 1 µM was 79%.

`COc1cc(C(CN2CCC(N(C)C)CC2)C2(O)CCCCC2)ccc1OCc1ccccc1` (stereo not shown) [Example 451, 1-{1-[4-(benzyloxy)-3-methoxyphenyl]-2-[4-(dimethylamino)piperidin-1-yl]ethyl}cyclohexanol dihydrochloride] showed an inhibition at 1 µM of 79%.

Work on `COc1ccc(C(CN2CCC(N3CCCCC3)CC2)C2(O)CCCCC2)cc1Cl` (stereo not shown) [Example 458, 1-[2-(1,4′-bipiperidin-1′-yl)-1-(3-chloro-4-methoxyphenyl)ethyl]cyclohexanol dihydrochloride] yielded an inhibition at 1 µM of 79%.

`OC1(C(CN2CCC(N3CCCCC3)CC2)c2ccc(OCCc3ccccc3)cc2)CCCCC1` (stereo not shown) [Example 461, 1-{2-(1,4′-bipiperidin-1′-yl)-1-[4-(2-phenylethoxy)phenyl]ethyl}cyclohexanol dihydrochloride] showed an inhibition at 1 µM of 17%.
